From patent US20250143995A1, “ACTIVE AGENT MODULATING THE ACTIVITY OF AN ION CHANNEL FOR USE IN REGULATION OF SKIN PIGMENTATION” (Cutaneon - Skin & Hair Innovations GmbH, priority 2022, published 2025)

What was measured:
Format in all cases: cell-based
[1] = system: tyrosinase; experiment: In situ tyrosinase activity in ex vivo human skin organ culture; conditions: after 3 days
Description: (§1) Samples of human abdominal, temporal, and occipital skin were obtained with written patient consent and under ethical approval from healthy adult human subjects during elective plastic surgery performed for cosmetic reasons. Full-thickness human skin samples were prepared as 4-6 mm punches, placed on filter paper, and cultured at the air-liquid interphase under serum-free conditions in William's E medium supplemented only with insulin, hydrocortisone and L-glutamine, as described previously. […]
(§2) Images were then obtained with a digital microscope (Keyence). Quantitative histomorphometric analysis was performed by assessing the relative intensity and the area of melanin stain in standardized reference areas with ImageJ (NIH; Bethesda, MD, USA). Briefly, for each parameter evaluated, multiple non-consecutive skin sections (at least 280 μm apart from each other) per punch biopsy were stained. Two skin punch biopsies were analyzed per experimental group unless indicated otherwise. The melanin content was then calculated based on the product of the fraction of area occupied by melanin and the mean shade of gray of the melanin, as described in detail elsewhere. […]

[2] = system: human skin organ culture; experiment: Epidermal melanin by Fontana Masson histochemistry in ex vivo human skin organ culture
Description: Samples of human abdominal, temporal, and occipital skin were obtained with written patient consent and under ethical approval from healthy adult human subjects during elective plastic surgery performed for cosmetic reasons. Full-thickness human skin samples were prepared as 4-6 mm punches, placed on filter paper, and cultured at the air-liquid interphase under serum-free conditions in William's E medium supplemented only with insulin, hydrocortisone and L-glutamine, as described previously.
For topical application of 2,5-dimethylpyrazine (DMP) (Sigma), a TRPM5 activator, a stock was prepared in ethanol and dissolved at 37° C. at a final concentration of 12.5 mM in a 50% v/v solution of Isopropanol in PBS containing 1 g/mL of Polyethylene glycol 6000. For topical application of triphenylphosphine oxide (TPPO) (Sigma), and TRPM5 inhibitor, a stock was prepared in ethanol and dissolved at 37° C. at a final concentration of 1.5 mM in a 50% v/v solution of Isopropanol in PBS containing 1 g/mL of Polyethylene glycol 6000. […]
as §2
For Fontana Masson stain, ethanol/acetic acid-fixed human skin/HF frozen sections were rinsed in two and three washes of Tris-buffered saline and distilled water, respectively. […] Image acquisition and quantitative histomorphometric analysis were performed similar to as described for the Warthin-Starry technique.

[3] = system: gp100; experiment: gp100-specific immunoreactivity in ex vivo human skin organ culture; conditions: after 3 days
Description: as §1, §2

[4] = system: human skin organ culture; experiment: Epidermal melanin by Warthin-Starry histochemistry in ex vivo human skin organ culture; conditions: topical DMP 12.5 mM
Description: as §1, §2

[5] = TPPO 1.5 mM combined with DMP 12.5 mM, topical
[6] = topical DMP 12.5 mM, compared to vehicle

Row | Compound | effect on the DMP-induced increase of tyrosinase activity in the basal epidermal layers [1, 5] | effect on the DMP-induced increase of epidermal melanin content (Fontana-Masson technique) ([2]; TPPO 1.5 mM combined with DMP 12.5 mM, topical, after 3 days) | effect on the DMP-induced increase of gp100-specific IR in the basal epidermal layers [3, 5] | intensity level of tyrosinase activity in the basal epidermal layers [1, 6] | melanin content in the basal layer and in the suprabasal layers (Fontana-Masson technique) ([2]; topical DMP 12.5 mM, 3 days) | epidermal melanin content (Fontana-Masson technique) ([2]; topical DMP 12.5 mM, after 3 days, compared to vehicle) | melanin content in the basal layer and in the suprabasal layers (Warthin-Starry technique) ([4]; 3 days) | epidermal melanin content (Warthin-Starry technique) ([4]; after 3 days, compared to vehicle) | intensity level of gp100-specific IR in the basal epidermal layers [3, 6]
1 | O=P(c1ccccc1)(c1ccccc1)c1ccccc1 [TPPO, triphenylphosphine oxide] | prevented the effect | prevented the effect | prevented the effect | – | – | – | – | – | –
2 | Cc1cnc(C)cn1 [DMP, 2,5-dimethylpyrazine] | – | – | – | markedly increases | increased | markedly increases | increased | markedly increases | markedly increases
